Among the data in ChEMBL document CHEMBL4402558, “Designing Chimeric Molecules for Drug Discovery by Leveraging Chemical Biology” (J Med Chem, 2020) are Activity values, retold here.

The species entered for this experiment is Homo sapiens. Put plainly: Antitumour activity against human DLBCL patients assessed as response rate co-treatment with rituximab relative to control. Format: functional.

Turning to `Cn1c(CCCC(=O)O)nc2cc(N(CCCl)CCCl)ccc21`, the Activity was 18%.
